This note sets out measurements from patent US11020358B2, “Method for the anti-senescence of and/or rejuvenating stem cells” (GWO XI STEM CELL APPLIED TECHNOLOGY CO., LTD., priority 2014, dated 2021).

One test concerns WJSCs. The experiment in a line: SA-β-gal activity assay in WJSCs. The test is classed as cell-based. As for the experimental part:
Three portions of equal volume of the above culture medium containing the sub-cultured WJSCs were provided. The first and second portions were handled by adding thereinto H2O2 at a final concentration of 100 μM, reacting for 2 hours to induce senescence of the WJSCs, replacing the culture medium with a fresh culture medium, adding thereinto TC at final concentrations of 0 and 6 μM, respectively, and reacting for 6 hours to obtain “H2O2 group (i.e., treated with H2O2 for 2 hours, but not treated with TC)” and “H2O2+TC6 group (i.e., treated with H2O2 for 2 hours and then treated with 6 μM of TC for 6 hours) WJSCs. The third portion without any treatment was referred to as “untreated group” WJSCs.
The ADSCs in each sample of the group obtained from Example 1 (1) were washed with PBS twice, fixed with 3% formaldehyde and washed with PBS once. […]
The staining solution was removed. […] The cells were observed and photographed under a microscope with 10-fold magnification, and the percentage of SA-β-gal activity-positive cells was calculated. […]

In test [1] the test system is ADSCs. The test can be described thus: Adipogenic differentiation assay (Oil Red O). The test is classed as cell-based, human. The following applies: H2O2 group ADSCs (100 μM 2 h), compared to untreated group. As for the experimental part:
Four portions of equal volume of the above culture medium containing the sub-cultured ADSCs were separately handled by adding thereinto H2O2 (purchased from Sigma-Aldrich) at a final concentration of 100 μM and reacting for 2 hours to induce senescence of the ADSCs, replacing the culture medium with a fresh culture medium, adding thereinto TC (trans-cinnamaldehyde, purchased from Sigma-Aldrich) at a final concentration of 0, 2, 4 or 6 μM and reacting for 6 hours, so as to obtain “H2O2 group (i.e., treated with H2O2 for 2 hours, but not treated with TC),” “H2O2+TC2 group (i.e., treated with H2O2 for 2 hours and then treated with 2 μM of TC for 6 hours),” “H2O2+TC4 group (i.e., treated with H2O2 for 2 hours and then treated with 4 μM of TC for 6 hours),” and “H2O2+TC6 group (i.e., treated with H2O2 for 2 hours and then treated with 6 μM of TC for 6 hours)” ADSCs. […]
After being photographed, the oil droplets were extracted from the cells in each sample with isopropanol containing 4% Nonidet P-40. The absorbance of the oil droplets at a wavelength of 510 nm (i.e., OD510) of each sample were measured, wherein the absorbance corresponds to the number of cells in orange-red color (i.e., cells present after adipogenic differentiation).

The subject of test [2] is ADSCs. The test can be described thus: Microarray analysis of gene expression in ADSCs. In kind it is cell-based, human. The settings on record: H2O2+TC6 group ADSCs, H2O2 group set as one fold; p < 0.05. As for the experimental part: Four portions of equal volume of the above culture medium containing the sub-cultured ADSCs were separately handled by adding thereinto H2O2 (purchased from Sigma-Aldrich) at a final concentration of 100 μM and reacting for 2 hours to induce senescence of the ADSCs, replacing the culture medium with a fresh culture medium, adding thereinto TC (trans-cinnamaldehyde, purchased from Sigma-Aldrich) at a final concentration of 0, 2, 4 or 6 μM and reacting for 6 hours, so as to obtain “H2O2 group (i.e., treated with H2O2 for 2 hours, but not treated with TC),” “H2O2+TC2 group (i.e., treated with H2O2 for 2 hours and then treated with 2 μM of TC for 6 hours),” “H2O2+TC4 group (i.e., treated with H2O2 for 2 hours and then treated with 4 μM of TC for 6 hours),” and “H2O2+TC6 group (i.e., treated with H2O2 for 2 hours and then treated with 6 μM of TC for 6 hours)” ADSCs. Each of the total cellular RNA of ADSCs of “H2O2 group” and “H2O2+TC6 group” from Experiment (3-1) was handled as follows. […] The products thus obtained are single strand cDNA of these genes. The cDNA was hybridized with a gene chip (Affymetrix GeneChip Human Genome U133 plus 2.0 Array, Affymetrix). Then, the gene chip was scanned and analyzed with a microarray scanner system (Gene Chip® Scanner 3000).

SMILES strings stand for the structures.

On to `OO` [H2O2, reference compound], for which, in the test with WJSCs (H2O2 group (100 μM 2 h) compared to untreated group), the “number of the SA-β-gal activity-positive WJSCs” value was “significantly increased”. Further, in the test with ADSCs [1], the “cell number after adipogenic differentiation (OD510)” value is recorded as “significantly reduced”.
Turning to `O=C/C=C/c1ccccc1` [TC, trans-cinnamaldehyde], the “number of the SA-β-gal activity-positive WJSCs” value in the test on WJSCs (H2O2+TC6 group (6 μM TC 6 h after H2O2) compared to H2O2 group) is recorded as “significantly reduced”. Further, in the test with ADSCs [2], the “CCND1 gene expression level” value came out at 5.8 Folds, the “E2F6 gene expression level” value is reported as 2.2 Folds, the “EIF5 gene expression level” value came out at 3.4 Folds and the “GADD45B gene expression level” value is on record as −4.6 Folds. Moreover, in the test with ADSCs [2], the “NYFA gene expression level” value came to 7.2 Folds, the “PCNA gene expression level” value was 2 Folds, the “PIM1 gene expression level” value was −4.4 Folds and the “POLR3H gene expression level” value is listed as 2.2 Folds. For the same molecule, in the test with ADSCs [2], the “SIRT1 gene expression level” value is 2.4 Folds, the “hTERT gene expression level” value was 2 Folds, the “p16 gene expression level” value is −1.8 Folds and the “p53 gene expression level” value is −1 Folds.
